Here are results for four compounds from US10537521B2 (priority 2016, dated 2020).

Read-outs that look alike come from different tables or passages of the source.

The nature of data set [1]: Example 4: multiple dose steady-state dose proportionality study, tramadol injection 50/100 mg IV and Ultram tablet 50/100 mg oral q6h. The following applies: steady-state, healthy volunteers. Format: in vivo, human.
Experimental: The study was an open-label, single-period, randomized, parallel treatment design. Subjects received study drug every 6 hours beginning on the morning of Day 1 and ending on the morning of Day 3. The first dose on Day 1 and the last dose on Day 3 were administered after a minimum 10 hour fast.
For data set [2], the system named is experienced opioid abusers. The settings on record: tramadol 100 and 200 mg IV, cited from earlier work.
Data set [3] relates to patients undergoing abdominal surgery. The following applies: initial tramadol 100 mg or morphine 5 mg i.v., repeat tramadol 50 mg or morphine 5 mg on demand; cited from earlier work.
A further data set concerns postoperative pain. The settings on record: after 4 to 6 hours; IV or IM intermittent injection, dose titrated to pain response; cited from earlier work.
The conditions of data set [4]: tramadol single […] [100 mg] p.o., humans N=12 male; cited from earlier work.
The nature of data set [5]: Example 1: multiple-dose randomized 3-way crossover PK study of two IV tramadol regimens vs 100 mg oral q6h. The following applies: mean; for AUCtau n: last dosing interval.
Experimental: A fitted curve was obtained because the second oral peak was not measured in the study. For the modeling portion of the analysis, a validated Phoenix® WinNonlin® program version 6.4 (Certara) was used for PK analysis, simulation, graphics, tables and statistical calculations. […] For purposes of nonlinear regression, the data were weighted as 1/observed. Predicted concentration-time data were calculated based on the individual fitted PK parameters.
For data set [6] the following is noted: after oral administration of tramadol (single dose of 100 mg); cited from earlier work.
Setting [7] is: Tramadol dosed as 50 mg IV every 6 hours.
Setting [8] is: Tramadol dosed as 50 mg Oral (Ultram tablet) every 6 hours.
Where [9] appears, read: Tramadol dosed as 100 mg IV every 6 hours.
Setting [10] is: Tramadol dosed as 100 gm Oral (Ultram tablet) every 6 hours.
[11] abbreviates: 50 mg IV regimen (h 0, 2, 4, then q4h to h 44), plasma.
[12] abbreviates: 75 mg IV regimen (h 0, 3, 6, then q6h to h 42).
The mark [13] stands for this setting: 75 mg IV regimen (h 0, 3, 6, then q6h to h 42), plasma.
The mark [14] stands for this setting: 100 mg oral q6h to h 42, plasma.

Consider `CN(C)C[C@H]1CCCC[C@]1(O)c1cccc(O)c1` [tramadol M1 metabolite], for which the “Cmin, tramadol M1 metabolite, Mean ± SD” value in data set [1] (setting [7]) was determined as 55.9 ± 7.4 ng/mL; in data set [1] (setting [8]), 65.9 ± 15.8 ng/mL; in data set [1] (setting [9]), 130 ± 37 ng/mL; in data set [1] (setting [10]), 93.6 ± 34.6 ng/mL. The “Trough Peak, tramadol M1 metabolite, Mean ± SD” value in data set [1] (setting [7]) worked out at 0.715 ± 0.044 ratio; in data set [1] (setting [8]), 0.670 ± 0.061 ratio; in data set [1] (setting [9]), 0.795 ± 0.040 ratio; in data set [1] (setting [10]), 0.707 ± 0.080 ratio.
Take `CN1CC[C@]23c4c5ccc(O)c4O[C@H]2[C@@H](O)C=C[C@H]3[C@H]1C5` [morphine]: the “ratings of “liking”” value in data set [2] (morphine 10 and 20 mg IV, over 5 minutes, 10 experienced opioid abusers) is on record as “significantly increased ratings”. Also, the “ratings of “feel drug effect” compared to placebo” value in data set [2] (morphine 10 and 20 mg IV, over 5 minutes) is “significantly increased”. The “ratings on the ARCI-MBG scale” value in data set [2] (morphine 20 mg IV) is recorded as “increased ratings”. Besides, the “responder rate (no or slight pain) within the first 90 minutes of treatment” value in data set [3] is given as 81.2%. Moreover, the “reduction of pain intensity” value in the data set with postoperative pain was 69.8%.
(+)-O-desmethyltramadol [(+)-M1]: in data set [4], the AUC is 1258 ± 410 ng·h/mL, the Cmax was 147 ± 39 ng/mL, the Tmax is recorded as 1.6 ± 0.5 h and the t1/2 is given as 6.0 ± 1.0 h.
Take `CN(C)C[C@H]1CCCC[C@]1(O)c1cccc(O)c1` [O-desmethyltramadol]: the “Cmax(0-2)” value in data set [5] (50 mg IV regimen (h 0, 2, 4, then q4h to h 44), first dose, plasma) came out at 17.1 ng/mL. For the same compound, the “RAC(trough)” value in data set [5] (50 mg IV regimen (h 0, 2, 4, then q4h to h 44)) is 5.2872. In data set [5] (setting [11]), the AUC0-24 was 1425 ng·h/mL, the AUC0-48 turned out to be 3427 ng·h/mL, the AUC24-48 was 2002 ng·h/mL and the C2 is 16.9 ng/mL. In data set [5] (setting [11]), the “C48 (T48)” value is on record as 81.7 ng/mL, the C1 h is given as 11.8 ng/mL, the “Cmax(2-4)” value is recorded as 37.8 ng/mL and the Css is recorded as 88.9 ng/mL. In data set [5] (setting [11]), the Tmax stood at 44.95 h, the “Tmax(0-2)” value is 1.85 h, the “Tmax(2-4)” value was 3.95 h and the “Tmax(44-48)” value is on record as 45.31 h. For the same compound, the “Cmax(0-3)” value in data set [5] (75 mg IV regimen (h 0, 3, 6, then q6h to h 42), first dose, plasma) is listed as 29.7 ng/mL. In data set [5] (setting [12]), the AUCtau n came out at 519.8 ng·h/mL and the “RAC(trough)” value came out at 2.7237. In addition, in data set [5] (setting [13]), the AUC0-24 stood at 1608 ng·h/mL, the AUC0-48 came to 3504 ng·h/mL, the AUC24-48 was found to be 1896 ng·h/mL and the C3 was 29.5 ng/mL. Further, in data set [5] (setting [13]), the “C48 (T48)” value is listed as 75.9 ng/mL, the C1 h is on record as 19.9 ng/mL, the “Cmax(3-6)” value turned out to be 59.4 ng/mL and the Css was 86.6 ng/mL. For the same compound, in data set [5] (setting [13]), the Tmax is 32.99 h, the “Tmax(0-3)” value worked out at 2.71 h, the “Tmax(3-6)” value came to 5.81 h and the “Tmax(42-48)” value worked out at 43.10 h. In addition, in data set [5] (100 mg oral q6h to h 42, first dose, plasma), the “Cmax(0-6)” value is listed as 60.3 ng/mL. In data set [5] (100 mg oral q6h to h 42), the AUCtau n turned out to be 768.4 ng·h/mL and the “RAC(trough)” value was found to be 2.7839. In data set [5] (setting [14]), this compound registered an AUC0-24 of 1655 ng·h/mL, an AUC0-48 of 4349 ng·h/mL, an AUC24-48 of 2693 ng·h/mL and a C6 of 42.3 ng/mL. In data set [5] (setting [14]), the “C48 (T48)” value came out at 111 ng/mL, the C1 h came to 41.4 ng/mL, the Cmax is recorded as 146 ng/mL and the Css stood at 128 ng/mL. Also, in data set [5] (setting [14]), the Tmax was 43.97 h, the “Tmax(0-6)” value is 2.04 h and the “Tmax(42-48)” value is given as 43.97 h. In addition, the “Cmax(42-48)” value in data set [5] (100 mg oral q6h to h 42, steady-state, plasma) was determined as 146 ng/mL. Also, in data set [6], the half-life result is listed as “approximately 6.7 hours”.
